From ChEMBL document CHEMBL1139848, “Structure-guided optimization of estrogen receptor binding affinity and antagonist potency of pyrazolopyrimidines with basic side chains” (J Med Chem, 2007)

Assays:
[1] = biological target: T1, Estrogen receptor (Homo sapiens, UniProt P03372); experiment: Binding affinity to ERalpha
T1 sequence (P03372 whole entry): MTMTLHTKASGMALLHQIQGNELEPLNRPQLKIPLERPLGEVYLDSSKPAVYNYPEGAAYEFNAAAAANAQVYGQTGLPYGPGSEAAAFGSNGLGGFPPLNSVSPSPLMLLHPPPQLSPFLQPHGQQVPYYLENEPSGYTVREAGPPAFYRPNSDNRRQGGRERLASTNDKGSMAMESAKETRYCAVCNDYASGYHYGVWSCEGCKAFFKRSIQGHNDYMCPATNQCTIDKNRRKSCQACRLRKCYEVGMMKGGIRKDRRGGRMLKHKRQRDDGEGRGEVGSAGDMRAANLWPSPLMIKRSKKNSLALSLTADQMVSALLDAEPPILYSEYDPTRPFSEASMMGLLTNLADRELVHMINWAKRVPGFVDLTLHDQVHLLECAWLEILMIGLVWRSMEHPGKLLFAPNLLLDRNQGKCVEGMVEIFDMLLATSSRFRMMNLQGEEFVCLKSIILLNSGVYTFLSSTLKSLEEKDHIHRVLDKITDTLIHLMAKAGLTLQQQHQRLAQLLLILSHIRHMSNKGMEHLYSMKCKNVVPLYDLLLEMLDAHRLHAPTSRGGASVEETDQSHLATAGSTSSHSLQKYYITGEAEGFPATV

[2] = biological target: T2, Estrogen receptor beta (Homo sapiens, UniProt Q92731); experiment: Binding affinity to ERbeta
[3] = biological target: T1, Estrogen receptor; experiment: Antagonist potency at ERalpha expressed in human HEC1 cells by luciferase reporter gene assay; assay type: functional, cell-based, HEC-1
[4] = biological target: T2, Estrogen receptor beta; experiment: Antagonist potency at ERbeta expressed in human HEC1 cells by luciferase reporter gene assay; assay type: functional, cell-based, HEC-1

T2 sequence (Q92731 whole entry): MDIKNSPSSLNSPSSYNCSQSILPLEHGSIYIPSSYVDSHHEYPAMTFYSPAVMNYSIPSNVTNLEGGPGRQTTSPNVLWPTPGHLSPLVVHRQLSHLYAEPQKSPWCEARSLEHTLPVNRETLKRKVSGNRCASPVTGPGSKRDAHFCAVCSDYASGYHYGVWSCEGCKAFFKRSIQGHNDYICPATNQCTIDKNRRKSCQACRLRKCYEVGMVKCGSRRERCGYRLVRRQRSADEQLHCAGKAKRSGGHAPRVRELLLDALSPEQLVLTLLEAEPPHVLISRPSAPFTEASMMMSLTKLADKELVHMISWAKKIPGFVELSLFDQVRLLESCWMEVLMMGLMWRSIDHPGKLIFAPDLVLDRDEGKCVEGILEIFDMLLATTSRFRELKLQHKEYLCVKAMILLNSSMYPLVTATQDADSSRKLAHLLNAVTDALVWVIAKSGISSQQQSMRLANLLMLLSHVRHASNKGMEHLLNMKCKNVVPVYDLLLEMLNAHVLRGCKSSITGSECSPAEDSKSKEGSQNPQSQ

Compound	Ki [1] [nM]	Ki [2] [nM]	IC50 [3] [nM]	IC50 [4] [nM]
Oc1ccc(-c2nn3c(C(F)(F)F)cc(C(F)(F)F)nc3c2-c2ccc(O)cc2)cc1	26	48	6000	600
Oc1ccc(-c2c(-c3ccccc3)nn3c(C(F)(F)F)cc(C(F)(F)F)nc23)cc1	2220	139	–	–
Oc1ccc(-c2nn3c(C(F)(F)F)cc(C(F)(F)F)nc3c2-c2ccc(OCCN3CCCCC3)cc2)cc1	7	71	90	40
Oc1ccc(-c2nn3cc(O)cnc3c2-c2ccc(O)cc2)cc1	3330	1520	–	–

Second part, led by results:

Ki [1] [nM]	Ki [2] [nM]	Compound	IC50 [3] [nM]	IC50 [4] [nM]
51	122	Oc1ccc(-c2nn3c(C(F)(F)F)cc(C(F)(F)F)nc3c2-c2ccccc2)cc1	–	–
47	178	CN(C)CCOc1ccc(-c2c(-c3ccc(O)cc3)nn3c(C(F)(F)F)cc(C(F)(F)F)nc23)cc1	1000	250
266	192	Oc1ccc(-c2c(-c3ccc(OCCN4CCCCC4)cc3)nn3c(C(F)(F)F)cc(C(F)(F)F)nc23)cc1	–	–
408	156	CN(C)CCOc1ccc(-c2nn3c(C(F)(F)F)cc(C(F)(F)F)nc3c2-c2ccc(O)cc2)cc1	–	–
